Measured values reported in patent publication US20230263822A1, “MODULATION OF FACTOR 11 EXPRESSION” (Ionis Pharmaceuticals, Inc., priority 2008, published 2023).
Strand notation (5' to 3'): a small letter for the sugar, then the base; units joined by * are phosphorothioate-linked, units joined directly phosphodiester-linked; [ ] holds rarer units or linkages, { } end groups; capitals alone tell only the bases. e = 2'-O-(2-methoxyethyl) (MOE); [5mC] = 5-methylcytosine; d = 2'-deoxy (DNA)

Columns and labels:
human Factor 11 mRNA [1] = assay: Dose-dependent inhibition of human Factor 11 in cyano primary hepatocytes, electroporation (Example 6); format: cell-based; details: ~16 hours
Procedure: Cells were plated at a density of 35,000 cells per well and transfected via electroporation with 0.74 nM, 2.2 nM, 6.7 nM, 20 nM, 60 nM, and 180 nM concentrations of antisense oligonucleotide, as specified in Table 13. After a treatment period of approximately 16 hours, RNA was isolated from the cells and human Factor 11 mRNA levels were measured by quantitative real-time PCR. Human Factor 11 primer probe set RTS 2966 was used to measure mRNA levels. Factor 11 mRNA levels were adjusted according to total RNA content, as measured by RIBOGREEN. Results are presented as percent inhibition of human Factor 11, relative to untreated control cells.

human Factor 11 mRNA [2] = assay: Dose-dependent inhibition of human Factor 11 in HepB3 cells, electroporation (Example 7); format: cell-based; details: for percent inhibition of human Factor 11 mRNA relative to untreated control cells: ~16 hours
Procedure: The gapmers were also transfected via electroporation and their dose dependent inhibition of human Factor 11 mRNA was measured. Cells were plated at a density of 20,000 cells per well and transfected via electroporation with 41.15 nM, 123.457 nM, 370.37 nM, 1111.11 nM, 3333.33 nM, and 10,000 nM concentrations of antisense oligonucleotide, as specified in Table 15. After a treatment period of approximately 16 hours, RNA was isolated from the cells and human Factor 11 mRNA levels were measured by quantitative real-time PCR. Human Factor 11 primer probe set RTS 2966 was used to measure mRNA levels. Factor 11 mRNA levels were adjusted according to total RNA content, as measured by RIBOGREEN. Results are presented as percent inhibition of human Factor 11, relative to untreated control cells.

blood coagulation = assay: PT and aPTT assay in cynomolgus monkeys (Example 46); format: in vivo; details: platelet poor plasma, relative to PBS group
Procedure: (§1) Groups, each consisting of two male and two female monkeys, were injected subcutaneously with 25 mg/kg of ISIS 416850, ISIS 449709, ISIS 445522, ISIS 449710, ISIS 449707, ISIS 449711, ISIS 449708, 416858, and ISIS 445531. Antisense oligonucleotide was administered to the monkeys at 25 mg/kg three times per week for week 1 and 25 mg/kg twice per week for weeks 2 to 8. A control group, consisting of two male and two female monkeys was injected subcutaneously with PBS according to the same dosing regimen. Body weights were taken 14 days and 7 days before the start of treatment and were then measured weekly throughout the treatment period. Blood samples were collected 14 days and 5 days before the start of treatment and subsequently several times during the dosing regimen for PT and aPTT measurements, and measurement of various hematologic factors. On day 55, the monkeys were euthanized by exsanguination while under deep anesthesia, and organs harvested for further analysis.
PT and aPTT were measured using platelet poor plasma (PPP) from […] treated with ISIS oligonucleotides. PT and aPTT values are provided in Tables 148 and 149 and are reported as International Normalized Ratio (INR) values. INR values for PT and aPTT were determined by dividing the PT or aPTT value for each experimental group by the PT or aPTT for the PBS treated group. This ratio was then raised to the power of the International Sensitivity Index (ISI) of the tissue factor used. […] Therefore, antisense reduction of Factor 11 with these ISIS oligonucleotides is useful for inhibiting the formation of a thrombus or clot in response to an abnormal vessel wall, but not in response to tissue injury.

[3] = Body and organ weights of cynomolgus monkeys (Example 46); format: in vivo; parameters: Liver weight / Spleen weight / Kidney weight: unit not given here
Procedure: as §1
Organ weights were taken after the animals were euthanized on day 55, and livers, kidneys and spleens were harvested.

Substance | PT ratio (INR) (blood coagulation; Day 10) | aPTT ratio relative to PBS group (blood coagulation; Day 10) | PT ratio (INR) (blood coagulation; Day 17) | aPTT ratio relative to PBS group (blood coagulation; Day 17) | PT ratio (INR) (blood coagulation; Day 24) | aPTT ratio relative to PBS group (blood coagulation; Day 24) | PT ratio (INR) (blood coagulation; Day 31) | aPTT ratio relative to PBS group (blood coagulation; Day 31) | PT ratio (INR) (blood coagulation; Day 38) | aPTT ratio relative to PBS group (blood coagulation; Day 38) | PT ratio (INR) (blood coagulation; Day 45) | aPTT ratio relative to PBS group (blood coagulation; Day 45) | PT ratio (INR) (blood coagulation; Day 52) | aPTT ratio relative to PBS group (blood coagulation; Day 52) | PT ratio (INR) (blood coagulation; Day 55) | aPTT ratio relative to PBS group (blood coagulation; Day 55) | PT ratio (INR) (blood coagulation; Day −5) | aPTT ratio relative to PBS group (blood coagulation; Day −5) | PT ratio (INR) (blood coagulation; Day −14) | aPTT ratio relative to PBS group (blood coagulation; Day −14) | further results
416825 (antisense GCCCTTCATGTCTAGGTCCA; 5-10-5 gapmer, further chemistry not given here) [compound 416825] |  |  |  |  |  |  |  |  |  |  |  |  |  |  |  |  |  |  |  |  | percent inhibition of human Factor 11 mRNA relative to untreated control cells (human Factor 11 mRNA [1]; 0.74 nM): 5%; percent inhibition of human Factor 11 mRNA relative to untreated control cells (human Factor 11 mRNA [1]; 2.2 nM): 22%; percent inhibition of human Factor 11 mRNA relative to untreated control cells (human Factor 11 mRNA [1]; 6.7 nM): 51%; percent inhibition of human Factor 11 mRNA relative to untreated control cells (human Factor 11 mRNA [1]; 20 nM): 61%; percent inhibition of human Factor 11 mRNA relative to untreated control cells (human Factor 11 mRNA [1]; 60 nM): 77%; percent inhibition of human Factor 11 mRNA relative to untreated control cells (human Factor 11 mRNA [1]; 180 nM): 84%; IC50 (human Factor 11 mRNA [2]): 160 nM; percent inhibition of human Factor 11 mRNA relative to untreated control cells (human Factor 11 mRNA [2]; 41.15 nM): 32%; percent inhibition of human Factor 11 mRNA relative to untreated control cells (human Factor 11 mRNA [2]; 123.457 nM): 40%; percent inhibition of human Factor 11 mRNA relative to untreated control cells (human Factor 11 mRNA [2]; 370.37 nM): 48%; percent inhibition of human Factor 11 mRNA relative to untreated control cells (human Factor 11 mRNA [2]; 1111.11 nM): 75%; percent inhibition of human Factor 11 mRNA relative to untreated control cells (human Factor 11 mRNA [2]; 3333.33 nM): 90%; percent inhibition of human Factor 11 mRNA relative to untreated control cells (human Factor 11 mRNA [2]; 10000 nM): 92%
ISIS 449708: 3-8-3, 4-8-4, 2-10-2, 3-10-3 or 4-10-4 MOE microwalk gapmer (Table 46) (antisense eA*e[5mC]*eA*dG*dT*dT*dT*d[5mC]*dT*dG*dG*e[5mC]*eA*eG) | 0.98 | 1.06 | 1.00 | 1.05 | 0.95 | 1.01 | 1.06 | 1.09 | 0.99 | 1.06 | 0.99 | 1.06 | 0.99 | 1.08 | 1.04 | 1.11 | 0.95 | 1.01 | 1.03 | 1.07 | body weight ([3]; day 1): 2130 g; body weight ([3]; day 8): 2148 g; body weight ([3]; day 15): 2125 g; body weight ([3]; day 22): 2110 g; body weight ([3]; day 29): 2095 g; body weight ([3]; day 36): 2100 g; body weight ([3]; day 43): 2125 g; body weight ([3]; day 50): 2076 g; Kidney weight ([3]; day 55, after euthanasia): 0.60; Liver weight ([3]; day 55, after euthanasia): 2.6; Spleen weight ([3]; day 55, after euthanasia): 0.19; body weight ([3]; day −7): 2163 g; body weight ([3]; day −14): 2096 g
ISIS 449709: 3-8-3, 4-8-4, 2-10-2, 3-10-3 or 4-10-4 MOE microwalk gapmer (Table 46) (antisense eG*e[5mC]*eA*e[5mC]*dA*dG*dT*dT*dT*d[5mC]*dT*dG*dG*d[5mC]*eA*eG*eG*e[5mC]) | 0.95 | 0.99 | 0.95 | 1.03 | 0.95 | 1.05 | 0.95 | 1.08 | 0.97 | 1.08 | 0.97 | 1.15 | 0.99 | 1.09 | 1.03 | 1.17 | 0.96 | 0.91 | 1.00 | 0.99 | body weight ([3]; day 1): 2112 g; body weight ([3]; day 8): 2075 g; body weight ([3]; day 15): 2085 g; body weight ([3]; day 22): 2117 g; body weight ([3]; day 29): 2068 g; body weight ([3]; day 36): 2064 g; body weight ([3]; day 43): 2106 g; body weight ([3]; day 50): 2147 g; Kidney weight ([3]; day 55, after euthanasia): 0.57; Liver weight ([3]; day 55, after euthanasia): 2.6; Spleen weight ([3]; day 55, after euthanasia): 0.21; body weight ([3]; day −7): 2093 g; body weight ([3]; day −14): 2044 g
ISIS 449710: 3-8-3, 4-8-4, 2-10-2, 3-10-3 or 4-10-4 MOE microwalk gapmer (Table 46) (antisense e[5mC]*eA*e[5mC]*dA*dG*dT*dT*dT*d[5mC]*dT*dG*dG*d[5mC]*eA*eG*eG) | 0.98 | 1.00 | 1.00 | 0.97 | 0.97 | 1.00 | 0.98 | 1.04 | 0.99 | 1.02 | 0.97 | 1.06 | 0.98 | 1.03 | 1.06 | 1.07 | 0.96 | 0.98 | 1.03 | 1.07 | body weight ([3]; day 1): 2131 g; body weight ([3]; day 8): 2120 g; body weight ([3]; day 15): 2145 g; body weight ([3]; day 22): 2177 g; body weight ([3]; day 29): 2149 g; body weight ([3]; day 36): 2180 g; body weight ([3]; day 43): 2227 g; body weight ([3]; day 50): 2201 g; Kidney weight ([3]; day 55, after euthanasia): 0.58; Liver weight ([3]; day 55, after euthanasia): 2.6; Spleen weight ([3]; day 55, after euthanasia): 0.24; body weight ([3]; day −7): 2114 g; body weight ([3]; day −14): 2097 g
ISIS 449711: 3-8-3, 4-8-4, 2-10-2, 3-10-3 or 4-10-4 MOE microwalk gapmer (Table 46) (antisense eA*e[5mC]*dA*dG*dT*dT*dT*d[5mC]*dT*dG*dG*d[5mC]*eA*eG) | 0.94 | 0.92 | 0.95 | 0.90 | 0.94 | 0.92 | 0.98 | 0.89 | 1.02 | 0.93 | 1.01 | 0.94 | 1.00 | 0.92 | 1.07 | 0.96 | 0.95 | 0.96 | 1.00 | 0.94 | Spleen weight ([3]; cynomolgus monkeys, 25 mg/kg, day 55, compared to the PBS control): caused increase in spleen weight; body weight ([3]; day 1): 2123 g; body weight ([3]; day 8): 2123 g; body weight ([3]; day 15): 2103 g; body weight ([3]; day 22): 2171 g; body weight ([3]; day 29): 2203 g; body weight ([3]; day 36): 2227 g; body weight ([3]; day 43): 2251 g; body weight ([3]; day 50): 2227 g; Kidney weight ([3]; day 55, after euthanasia): 0.54; Liver weight ([3]; day 55, after euthanasia): 2.6; Spleen weight ([3]; day 55, after euthanasia): 0.32; body weight ([3]; day −7): 2105 g; body weight ([3]; day −14): 2049 g
